Data from US20240132484A1, “BROAD SPECTRUM ANTIVIRAL COMPOUNDS TARGETING THE SKI COMPLEX” (priority 2020, published 2024).
Values joined by “and” are separate entries in the source; they are usually repeats but may differ in a detail not shown here. Equal entries are not always repeated. Where two headings read alike, the source gives them in different places.

Experiments:
SARS2 = format: cell-based, SARS-CoV-2; conditions: for Infection Data, Percentage Infection Relative to Appropriate DMSO Control with Avg Background Subtraction: duplicate wells, listed as SICLS61; for Infection Data, Average, Mean (Percentage Infection Relative to Appropriate DMSO Control): average of Exp 1 and Exp 2, n=4
cells (nuclei count) = conditions: for Toxicity Data, Average, Mean (percentage relative to appropriate DMSO control): average of Exp 1 and Exp 2, n=4

CC1=C(C(=O)NC2CCCCCC2)C(c2cccs2)NC(=O)N1 (stereo not drawn) [SILCS61]
Infection Data, Percentage Infection Relative to Appropriate DMSO Control with Avg Background Subtraction (SARS2; 1 uM, Exp 1 (SMW506)): 73.61% and 82.18% | Infection Data, Percentage Infection Relative to Appropriate DMSO Control with Avg Background Subtraction (SARS2; 1 uM, Exp 2 (SMW492), SILCS 61-66 and 67-72 plates): 57.97% and 58.62% | Infection Data, Average, Mean (Percentage Infection Relative to Appropriate DMSO Control) (SARS2; 1 uM): 68.10% | Infection Data, Percentage Infection Relative to Appropriate DMSO Control with Avg Background Subtraction (SARS2; 5 uM, Exp 1 (SMW506)): 41.43% and 63.29% | Infection Data, Percentage Infection Relative to Appropriate DMSO Control with Avg Background Subtraction (SARS2; 5 uM, Exp 2 (SMW492), SILCS 61-66 and 67-72 plates): 38.94% and 52.11% | Infection Data, Average, Mean (Percentage Infection Relative to Appropriate DMSO Control) (SARS2; 5 uM): 48.94% | Infection Data, Percentage Infection Relative to Appropriate DMSO Control with Avg Background Subtraction (SARS2; 10 uM, Exp 1 (SMW506)): 73.81% and 87.85% | Infection Data, Percentage Infection Relative to Appropriate DMSO Control with Avg Background Subtraction (SARS2; 10 uM, Exp 2 (SMW492), SILCS 61-66 and 67-72 plates): 33.45% and 32.58% | Infection Data, Average, Mean (Percentage Infection Relative to Appropriate DMSO Control) (SARS2; 10 uM): 56.92% | Infection Data, Percentage Infection Relative to Appropriate DMSO Control with Avg Background Subtraction (SARS2; 25 uM, Exp 1 (SMW506)): 51.60% and 90.77% | Infection Data, Average, Mean (Percentage Infection Relative to Appropriate DMSO Control) (SARS2; 25 uM): 43.41% | Infection Data, Percentage Infection Relative to Appropriate DMSO Control with Avg Background Subtraction (SARS2; 50 uM, Exp 1 (SMW506)): −4.48% and −4.80% | Infection Data, Percentage Infection Relative to Appropriate DMSO Control with Avg Background Subtraction (SARS2; 50 uM, Exp 2 (SMW492), SILCS 61-66 and 67-72 plates): 11.69% and 10.06% | Infection Data, Average, Mean (Percentage Infection Relative to Appropriate DMSO Control) (SARS2; 50 uM): 3.12% | Percentage Inhibition Average 1 μM (SARS2; SARS2, 1 μM): 31.90% | Screening data (Relative infection to DMSO controls) Average 1 μM (SARS2; SARS2, 1 μM, 100=DMSO control): 68.10 | Percentage Inhibition Average 5 μM (SARS2; SARS2, 5 μM): 51.06% | Screening data (Relative infection to DMSO controls) Average 5 μM (SARS2; SARS2, 5 μM, 100=DMSO control): 48.94 | Percentage Inhibition Average 10 μM (SARS2; SARS2, 10 μM): 43.08% | Screening data (Relative infection to DMSO controls) Average 10 μM (SARS2; SARS2, 10 μM, 100=DMSO control): 56.92 | Percentage Inhibition Average 25 μM (SARS2; SARS2, 25 μM): 56.59% | Screening data (Relative infection to DMSO controls) Average 25 μM (SARS2; SARS2, 25 μM, 100=DMSO control): 43.41 | Percentage Inhibition Average 50 μM (SARS2; SARS2, 50 μM): 96.88% | Screening data (Relative infection to DMSO controls) Average 50 μM (SARS2; SARS2, 50 μM, 100=DMSO control): 3.12 | Average (relative infection to DMSO over the 5 tested concentrations) (SARS2; SARS2, average over 1 to 50 uM, 100=DMSO control): 44.10 | Toxicity Data, Average, Mean (percentage relative to appropriate DMSO control) (cells (nuclei count); 1 uM): 106.46% | Relative cell count to DMSO controls, Average 1 μM (cells (nuclei count); 1 μM, toxicity data, 100=DMSO control): 106.46 | Toxicity Data, Average, Mean (percentage relative to appropriate DMSO control) (cells (nuclei count); 5 uM): 110.71% | Relative cell count to DMSO controls, Average 5 μM (cells (nuclei count); 5 μM, toxicity data, 100=DMSO control): 110.71 | Toxicity Data, Average, Mean (percentage relative to appropriate DMSO control) (cells (nuclei count); 10 uM): 107.86% | Relative cell count to DMSO controls, Average 10 μM (cells (nuclei count); 10 μM, toxicity data, 100=DMSO control): 107.86 | Toxicity Data, Average, Mean (percentage relative to appropriate DMSO control) (cells (nuclei count); 25 uM): 109.52% | Relative cell count to DMSO controls, Average 25 μM (cells (nuclei count); 25 μM, toxicity data, 100=DMSO control): 109.52 | Toxicity Data, Average, Mean (percentage relative to appropriate DMSO control) (cells (nuclei count); 50 uM): 104.46% | Relative cell count to DMSO controls, Average 50 μM (cells (nuclei count); 50 μM, toxicity data, 100=DMSO control): 104.46 | Relative cell count to DMSO controls, Average (for correlation analysis) (cells (nuclei count); average value over the 5 tested concentrations (1 to 50 uM)): 107.80
